Literature values as cited in patent publication US11433058B2, “Non-pulsatile prolonged-release betahistine oral solid compositions” (INTAS PHARMACEUTICALS LTD., priority 2017, dated 2022).
Structures can show the parent of a compound that is named as a salt.

Key:
[1] = per WO2014001267
[2] = oral; immediate release tablet or orodispersible tablet (Betaserc SmPC)

Row | water solubility [1] [mg/mL] | absolute bioavailability [2] | SMILES
1 | 49.3 | – | CNCCc1ccccn1 [Betahistine dihydrochloride]
2 | – | about 99% | O=C(O)Cc1ccccn1 [Example 2-PAA, 2-pyridylacetic acid]
